From patent US20250339542A1, “CONVERSION OF A BIOLOGICALLY SILENT MIRNA BINDING SMALL MOLECULE TO AN MIRNA DEGRADER” (University of Florida Research Foundation, Incorporated, priority 2020, published 2025)
“And” between values parts separate entries of the source, which are not always exact repeats. Equal entries are not always repeated. “Also recorded” adds a separate entry of the source.

Columns and labels:
HUVECs = experiment: Angiogenesis: tubule network formation of HUVECs on Matrigel; format: cell-based, human
Protocol: Lastly, compound 3's (Formula I) effect on VHL protein and angiogenesis in HUVECs was studied. […] Since upregulation of VHL should attenuate the angiogenic capacity of HUVECs, their ability to differentiate into tubule networks on Matrigel as previously described was measured.^24 Treatment with compound 3, caused a decrease of 29% (100 vs. 140 branch points) in tubule branching for differentiated HUVECs. Although small, this decrease does correspond with suppression of miR-155 and de-repression of VHL, which is in line with the initial study by Kong et al. who observed a 42% reduction in branching points (FIG. 21I).^38 Taken together compound 3 degrades miR-155 in HUVECs with low nanomolar activity and is able to attenuate their angiogenic capacity.

pri-miR-155 = experiment: RT-qPCR of pri-miR-155 levels in MDA-MB-231 cells; format: cell-based, human
Protocol: (§1) Tissue Culture. MDA-MB-231 cells were obtained from ATCC (HTB-26) and cultured in RPMI medium with […] & 25 mM HEPES (Corning) supplemented with 10% FBS (sigma). MCF-10a cells were obtained from ATCC(CRL-10317) and cultured in DMEM/F12 50/50 with glutamine and 15 mM HEPES(Corning) containing 20% FBS(Sigma), 1×Antibiotic-Antimycotic(Corning), 20 ng/mL of human epidermal growth factor(Pepro Tech Inc.), 100 μg/mL of insulin and […] of hydrocortisone (Pfizer &Bauer). HUVECs were cultured in EGM (Lonza) made using the EGM-2 bullet kit (Lonza) per the manufacturers protocol.
RT-qPCR analysis for Mature, Primary and Precursor miRNAs and mRNA levels. After compound treatment for the indicated time (MDA-MB-231 48 h and HUVECs 24 h), total RNA was extracted using the Zymo Quick-RNA mini prep kit according to the manufacturers protocol. […] The obtained data was analyzed by using the ΔΔCt method as described previously. […] Then the media was changed with fresh growth medium without compound and the cells incubated for 12, 24 and 36 h with RNA harvested and pre-miR-155 levels analyzed as described above.
(§2) RT-qPCR analysis for Mature, Primary and Precursor miRNAs and mRNA levels part. Relative RNA expression was determined by using ΔΔCt method with 18S rRNA as an internal control. Normalized fold change was calculated with the equation as below: […]

pre-miR-155 [1] = experiment: RT-qPCR of pre-miR-155 levels in HUVECs; format: cell-based, human
Protocol: as §1
(§3) RT-qPCR analysis for Mature, Primary and Precursor miRNAs and mRNA levels. After compound treatment for the indicated time (MDA-MB-231 48 h and HUVECs 24 h), total RNA was extracted using the Zymo Quick-RNA mini prep kit according to the manufacturers protocol. Reverse Transcription (RT) for microRNAs and pri- and pre-miR-155 were done on 200 ng of RNA using the miScript II RT kit (Qiagen) according to the manufacturer's protocol. The mRNAs were done using QScript (Quanta Bio) on 200 ng of total RNA according to the manufacturer's protocol. RT-qPCR was done as mentioned above. The obtained data was analyzed by using the ΔΔCt method as described previously. For the washout experiment, MDA-MB-231 cells were treated with 3 for 48 h. Then the media was changed with fresh growth medium without compound and the cells incubated for 12, 24 and 36 h with RNA harvested and pre-miR-155 levels analyzed as described above.

Von-Hippel Lindau (VHL) = experiment: Western blot of VHL in HUVECs; format: cell-based, human
miR-155 [2] = experiment: RT-qPCR of miR-155 levels in HUVECs; format: cell-based, human
Protocol: as §1, §3

MCF-10a cells = experiment: Migration assay of transfected MCF-10a cells; format: cell-based; details: mock transfected MCF-10a cells
Protocol: Lastly, the dependence of migration on miR-155 and the activity of 3 on the presence of the 5′GAU/3′C_A bulge was assessed. MCF-10a cells, a model of healthy breast epithelium, were transfected with wild type pre-miR-155 and mutant pre-miR-155, where the 5′GAU/3′C_A bulge is mutated to an AU base pair. […] Treatment with 3 reduced migration of MCF-10a cells transfected with WT pre-miR-155 by 60%, in contrast to mutant miR-155 expressing cells in which the compound's binding site has been ablated, the migration of which was unaffected by 3 treatment.
Migration Assay: The Migration assay was performed the same as previous publication^15. Briefly, MDA-MB-231 cells were serum starved for 12 h in RPMI medium without FBS. Then, samples of 50,000 cells treated with vehicle or 155-Ribotac in serum starved medium were seeded into Hanging cell culture Inserts with 8.0 µm pores for 24 well plate with complete growth medium in the bottom well. After 20 h, the medium was aspirated and the inserts and the bottom wells were washed with DPBS twice. Then to the bottom well were added 400 µL of 4% paraformaldehyde. After fixing for 20 min. The inserts and wells were washed with DPBS twice and then treated with 400 µL of 0.1% crystal violet solution. After 20 min, the wells and inserts were washed with water twice and PBS once. Cotton swabs were used to remove the cells inside the inserts. […]

MDA-MB-231 cells = experiment: Migration assay of MDA-MB-231 cells; format: cell-based; details: Homo sapiens, compound 3 at 1×10^−7 M, read-out: inhibition of cellular migration
Protocol: Migration Assay: The Migration assay was performed the same as previous publication^15. Briefly, MDA-MB-231 cells were serum starved for 12 h in RPMI medium without FBS. Then, samples of 50,000 cells treated with vehicle or 155-Ribotac in serum starved medium were seeded into Hanging cell culture Inserts with 8.0 µm pores for 24 well plate with complete growth medium in the bottom well. After 20 h, the medium was aspirated and the inserts and the bottom wells were washed with DPBS twice. Then to the bottom well were added 400 µL of 4% paraformaldehyde. After fixing for 20 min. The inserts and wells were washed with DPBS twice and then treated with 400 µL of 0.1% crystal violet solution. After 20 min, the wells and inserts were washed with water twice and PBS once. Cotton swabs were used to remove the cells inside the inserts. Migration inserts were completely air-dried and imaged by using a Leica DMI3000 B upright fluorescent microscope.

[3] = system: RNA isoforms of miR-155 that contain the 5′GAU/3′C_A binding site; experiment: RT-qPCR of RNA isoforms of miR-155 (same binding site) in MDA-MB-231 cells; format: cell-based, human; details: 48 h
Protocol: Next, the selectivity of 3 to inhibit miR-155 out of 373 expressed miRNAs in MDA-MB-231 cell was assessed. […] A comparison of their structures to the aforementioned list of miRNAs with potential RIBOTAC sites identified that all except pre-miR-101-1 and pre-let-7g have a RIBOTAC targetable motif.
as §3

SOCS1 = experiment: Western blot of SOCS1 in MDA-MB-231 cells; format: cell-based, human
Protocol: Western-Blotting. MDA-MB-231 cells were plated in 6 well plates at 150,000 cells/well. And at 50% confluency, cells were treated with Vehicle or 155-ribotac for 48 h. Then the medium was removed and washed with 1× DPBS. The cells were trypsinized and pelleted. The pellets were washed twice with 1× DPBS and then lysed in 50 L of M-PER (Thermo Fisher) buffer with 1× protease inhibitor cocktail (Roche) on ice for 20 min. The lysate was centrifuged at 4° C. for 15 min and the supernatants were collected. Protein concentration were determined using a Pierce Mico BCA Protein Assay kit (Fisher Scientific) according to the manufacturer's protocol. Approximately 20 g of total protein for each sample was resolved on a 10% SDS-polyacrylamide gel and the protein were then transferred to a PVDF membrane. […] After washing with 1× TBST for 15 min for 3 times, SOCS1 protein expression was detected by using SuperSignal West Pico Chemiluminescent Substrate (Pierce Biotechnology).
The membrane was then stripped by Stripping Buffer (200 mM glycine with 0.1% SDS, pH 2.2) for 90 min at RT and then the membrane was washed with 1× TBST for 10 min for 3 times. […] The membrane was then washed with 1× TBST for 10 min for 3 times and j-actin expression level was detected. ImageJ software was used to quantify the protein bands.

pre-miR-155 [4] = experiment: RT-qPCR of pre-miR-155 levels in MDA-MB-231 cells; format: cell-based, human
Protocol: as §1, §3, §2

RNase L / pre-miR-155 = biological target: T1, RNase L / pre-miR-155 (Homo sapiens, UniProt Q05823); experiment: Immunoprecipitation of RNase L from MDA-MB-231 cells, RT-qPCR of pre-miR-155; format: cell-based; details: 100 nM, 48 h, relative to untreated
T1 construct: RNase L was immunoprecipitated from MDA-MB-231 cells; endogenous in cells; host or cells: MDA-MB-231
T1 sequence (Q05823 1-741): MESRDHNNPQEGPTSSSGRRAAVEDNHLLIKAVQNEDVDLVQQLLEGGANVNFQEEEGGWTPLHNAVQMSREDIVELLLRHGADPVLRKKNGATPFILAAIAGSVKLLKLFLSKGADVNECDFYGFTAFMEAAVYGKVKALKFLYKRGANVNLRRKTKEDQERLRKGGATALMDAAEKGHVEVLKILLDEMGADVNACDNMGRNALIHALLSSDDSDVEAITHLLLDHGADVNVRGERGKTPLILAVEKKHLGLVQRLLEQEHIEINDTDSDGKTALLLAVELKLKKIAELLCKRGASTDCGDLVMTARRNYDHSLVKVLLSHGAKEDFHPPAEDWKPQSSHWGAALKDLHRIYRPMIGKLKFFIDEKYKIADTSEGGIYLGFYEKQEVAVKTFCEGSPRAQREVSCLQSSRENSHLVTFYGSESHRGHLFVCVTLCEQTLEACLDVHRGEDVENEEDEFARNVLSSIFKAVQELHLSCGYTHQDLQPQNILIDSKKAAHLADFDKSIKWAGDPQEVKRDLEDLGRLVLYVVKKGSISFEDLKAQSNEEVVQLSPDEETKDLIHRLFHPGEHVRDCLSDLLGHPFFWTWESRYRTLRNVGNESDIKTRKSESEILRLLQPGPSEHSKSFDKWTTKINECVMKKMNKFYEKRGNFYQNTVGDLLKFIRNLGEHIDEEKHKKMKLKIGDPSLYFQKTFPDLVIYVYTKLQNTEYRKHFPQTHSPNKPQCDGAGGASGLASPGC
Protocol: Immunoprecipitation of RNase L. RNase L immunoprecipitation is performed according to published procedures.^16 Briefly, at […], MDA-MB-231 cells were treated with vehicle, 100 nM of 3 or 5 for 48 h. Cells were then washed with DPBS, and detached by scraper. The collected cells were lysed in 100 L of M-PER buffer(78503, Thermo Fisher) containing 1× Protease Inhibitor Cocktail III for Mammalian Cells (Research Products International Corp.) and 80 U of RNaseOUT Recombinant Ribonuclease Inhibitor (Invitrogen) per the manufacture's protocol. The samples were centrifuged at 13,000×g at 4° C. Protein concentration was determined by using a Pierce Mico BCA Protein Assay kit (Fisher Scientific). Approximately 200 g of the total protein per sample was incubated at 4° C. overnight with Dynabeads Protein A (Life Technologies) bound to either RNase L mouse primary antibody (Santa Cruz Biotechnology: sc-74405) or j-actin mouse primary antibody (Cell signaling: 8H10D10). Beads were then washed with 1× DPBST (1× DPBS supplemented with 0.02% Tween-20) for 3 times, after which RNA was extracted by using a miRNeasy Mini Kit (Qiagen) per the manufacturer's instructions. RT-qPCR was performed the same as mentioned above.

miR-155 [5] = experiment: RT-qPCR of mature miR-155 levels in MDA-MB-231 cells; format: cell-based, human; details: 48 h
Protocol: as §1, §3, §2

Compound | inhibition of angiogenic capacity / decrease in tubule branching (HUVECs; differentiated HUVECs on Matrigel) | branch points (HUVECs; differentiated HUVECs, treated (vs. 140 untreated)) | degradation of the primary transcript (pri-miR-155) (pri-miR-155) [%] | lowest concentration showing cleavage of pre-miR-155 (pre-miR-155 [1]) [nM] | inhibition at 0.001 µM (pre-miR-155 [1]; Homo sapiens, HUVEC, 1×10^−9 M) [%] | de-repression of VHL (Von-Hippel Lindau (VHL); 10 nM) [%] | de-repression of VHL (Von-Hippel Lindau (VHL); 1×10^−7 M) [fold] | lowest concentration showing reduction of miR-155 levels (miR-155 [2]) [nM] | inhibition at 0.001 µM (miR-155 [2]; Homo sapiens, HUVEC, 1×10^−9 M) [%] | effect on migration (MCF-10a cells) | inhibition at 0.1 µM (MDA-MB-231 cells) [%] | effect on RNA isoforms of miR-155 [3] | de-repression of SOCS1 (SOCS1) [%] | upregulation of SOCS1 (SOCS1) [fold] | degradation of pre-miR-155 (pre-miR-155 [4]; MDA-MB-231 cells, 1×10^−7 M, 48 h) [%] | degradation of pre-miR-155 (pre-miR-155 [4]; MDA-MD-231 and/or HUVEC cells, 0.1 micromolar, summary) [%] | enrichment of pre-miR-155 in RNase L pulldown fractions (RNase L / pre-miR-155) | effect on pre-miR-155 levels (pre-miR-155 [1]) | effect on miR-155 levels (miR-155 [2]) | effect on miR-155 levels / miR-155 biogenesis (miR-155 [5])
CCOC(=O)C1=C(Nc2ccccc2)S/C(=C\c2ccc(OCCOCCOCCOCCNC(=O)CCc3c(C)n(-c4c(C(C)C)cccc4C(C)C)c[n+]3-c3c(C(C)C)cccc3C(C)C)c(O)c2)C1=O [Compound 3] | 20% and 29% | 100 | 43 | ≤ 1 | 50 | 50 | 1.5 | ≤ 1 | 50 | inactive | 50 | no effect | 50 | 1.6 | 60 | ≥ 60 |  |  |  | 
CCOC(=O)C1=C(Nc2ccccc2)S/C(=C\c2ccc(O)c(OCCOCCOCCOCCNC(=O)CCc3c(C)n(-c4c(C(C)C)cccc4C(C)C)c[n+]3-c3c(C(C)C)cccc3C(C)C)c2)C1=O [Compound 5] |  |  |  |  |  |  |  |  |  |  |  |  |  |  |  |  | no enrichment | no effect | no effect | no effect; also recorded: does not inhibit
